Key:
[1] = system: TGF-β-induced fibronectin; settings: MRC-5, 10 ng/mL TGF-β, 24 hours, low concentrations alone or in combination
Protocol: (§1) FIGS. 13A-13C: MRC-5 lung fibroblast cells were serum-starved 24 hours then treated with or without 10 ng/mL TGF-β for 24 hours (T-24 hr). […] FN: fibronectin, YAP: yes-activated protein, TAZ: transcriptional coactivator with PDZ-binding motif, and SMA(ACTA2): smooth muscle actin. Representative western blot is shown (n=2). […] Cells were fixed in −20C methanol for 15 minutes and immunolabeled for fibronectin. Cellomics arrayscan imaging was performed and staining intensity was quantified and analyzed for fibronectin expression on a per cell basis.
(§2) Turning now to FIGS. 13A-13E, in a clinical setting, it would be advantageous for the efficacy of the therapeutics that the activated fibroblasts be reversed to a quiescent state upon treatment. […] To test the combinations, the inventors obtained quantitative analysis of fibronectin staining in fibroblasts upon treatment with TGF-β in the presence or absence of drug combinations.

[2] = system: activated fibroblast phenotype; settings: MRC-5 pre-activated with 10 ng/mL TGF-β 24 hours, then 24 hours treatment
Protocol: as §1, §2

[3] = system: TGF-β-induced fibronectin expression; assay: Western blot of TGF-β-induced fibronectin expression in WPMY-1 fibroblasts; assay type: cell-based, human; settings: WPMY-1, 5 ng/ml TGF-β, digoxin 30, 60, 120, 240 nM, 24 hours
Protocol: Inhibitors of CAF Differentiation. A. WPMY-1 cells were plated into each well of 4-chamber slice (for IF), or (C) in a 24 well plate (for western blot analysis). After cell attachment, vehicle or 5 ng/ml TGF-β was added into each well and incubated for 24 h in a 37° C. in a humidified incubator containing 5% CO2. For fluorescence detection (A), cells were fixed and stained with antibody detecting fibronectin and/or stained with DAPI to detect the nuclei. Protein was extracted with boiling Lamaelli buffer for WB (C) and blots were probed with anti-fibronectin or anti-tubulin antibodies. Fibronectin fluorescence (D and E) was measured in the presence or absence of TGF-β in 8 well replicates as follows. Cells were conditioned in serum-free DMEM for 48 hr prior to the addition of TGF-β. Images were acquired using a Cellomics platform with a mask shown in the schematic of (B). The mean of the total fluorescence intensity in each well was calculated from 300 cells per image field and up to 15 fields from each well for fibronectin. The fold change in fibronectin expression per acquired image (nuclei) is shown (Mean+/−SD).
Panel A1 is the control, Panel A2 is the TGF-β treated wells and Panel A3 is TGF-β plus PsA at 5 micromolar. Images were captured using the Cellomics imaging system.
(§3) Representative blots are shown with two exposures of fibronectin to account for strong signal intensity. n=3.
FIGS. 9A-9B: Increases in intracellular Ca^2+ prevent TGF-β-induced fibronectin expression. (A) WPMY-1 fibroblasts were treated with 2.5 μM thapsigargin±5 ng/ml TGF-β for 24 hours. (B) WPMY-1 fibroblasts were treated with 2.5-10 μM 3′,4′-dichlorobenzamil hydrochloride (DCB)±5 ng/ml TGF-β for 24 hours. Cell lysates were analyzed by western blot for fibronectin expression.
Because of the observed low nanomolar effective concentration of the cardiac glycosides, the inventors hypothesized that the cardiac glycosides may be acting by binding to their high affinity target, the Na^+/K^+ ATPase, and that action through the ATPase is the mechanism by which the cardiac glycosides are able to block TGF-β-induced fibronectin expression. It is well documented that inhibition of the Na^+/K^+ ATPase by digoxin leads to increases in intracellular Ca^2+ by preventing Ca^2+ efflux through the Na^+/Ca^2+ exchanger. In order to determine if increased intracellular Ca^2+ is sufficient to prevent TGF-β-induced fibronectin expression, the inventors utilized two compounds that increase intracellular Ca^2+ concentrations. 3′,4′-dichlorobenzamil hydrochloride (DCB) inhibits the Na^+/Ca^2+ exchanger, Na^+ transport, and sarcoplasmic reticulum Ca^2+ release channels. Thapsigargin inhibits the endoplasmic reticulum Ca^+ ATPase, preventing storage of Ca^2+ in the endoplasmic reticulurn, causing an accumulation in the cytoplasm. Cells were treated with 2.5-10 μM of DCB or thapsigargin±TGF-β for 24 hours.

[4] = system: MRC-5 fibroblasts; assay: Collagen/Matrigel contraction of MRC-5 fibroblasts; settings: MRC-5 in collagen/Matrigel, 120 nM digoxin, 5 ng/ml TGF-β, 4 days
Protocol: WPMY-1 (A) and MRC-5 (B) fibroblasts were treated with or without 120 nM digoxin±5 ng/ml TGF-β. […] WPMY-1 (C) and MRC-5 (D) fibroblasts embedded in collagen/Matrigel were treated with or without 120 nM digoxin±5 ng/ml TGF-β for 4 days post seeding. Data are shown as percent contracted area from initial 100% well confluence. *P<0.05 and **P<0.01 indicate significant differences (n=3, Values are ±SEM).

[5] = system: TGF-β-induced CAF differentiation markers; assay: Real-Time PCR of CAF markers in WPMY-1 fibroblasts; assay type: cell-based, human; settings: WPMY-1, 120 nM digoxin, 24 h
Protocol: In order to determine if digoxin prevents CAF differentiation or simply TGF-β-induced fibronectin expression, the inventors performed quantitative reverse transcriptase-PCR (qPCR) to analyze other CAF markers, including α-SMA, collagen 1a1 (COL1A1), fibroblast activation protein (FAP), and tenascin C (TNC). RNA was extracted from cells treated with 120 nM digoxin±TGF-β for 24 hours. […] Additionally, the inventors observed that α-SMA mRNA expression was already high in WPMY-1 cells and not increased by addition of TGF-β, but was reduced in response to digoxin treatment.

[6] = system: EGR1 luciferase reporter; assay: EGR1 luciferase reporter in WPMY-1 cells; assay type: cell-based, human; settings: WPMY-1, digoxin 60 or 120 nM, 5 ng/ml TGF-β, 24 hours
Protocol: (§4) A) WPMY-1 human fibroblast cells transfected with SMAD (left) or EGR1 (right) luciferase reporter were treated with or without 5 ng/ml TGF-β in the presence or absence of Digoxin (60 or 120 nM) for 24 hours. Relative luciferase activity is shown. *P<0.05, **P<0.01, ***P<0.001 are significant differences compared to values set to 1 (n=3, Values are ±SEM). B) J2 mouse fibroblast cells were treated with or without 5 ng/ml TGF-β in the presence or absence of increasing concentrations (30, 60, 120, or 240 nM) of digoxin for 24 hours. Representative blot is shown with two exposures of fibronectin to account for strong signal intensity (n=3).
(§5) Finally, J2 mouse fibroblast cells were treated with or without 5 ng/ml TGF-β in the presence or absence of increasing concentrations (30, 60, 120, or 240 nM) of digoxin for 24 hours.

[7] = system: SMAD promoter activity; assay: SMAD luciferase reporter in WPMY-1 cells; assay type: cell-based, human; settings: WPMY-1, digoxin 60 or 120 nM, 5 ng/ml TGF-β, 24 hours
Protocol: as §4, §5

[8] = system: TGF-β-induced fibronectin expression; assay: Western blot of TGF-β-induced fibronectin expression in HPS-19 fibroblasts; assay type: cell-based, human; settings: HPS-19, 5 ng/ml TGF-β, digoxin 30, 60, 120, 240 nM, 24 hours
From the text: as §3

[9] = system: TGF-β-induced fibronectin expression; assay: Western blot of TGF-β-induced fibronectin expression in MRC-5 fibroblasts (5 ng/ml TGF-β); assay type: cell-based, human; settings: MRC-5, 5 ng/ml TGF-β, digoxin 30, 60, 120, 240 nM, 24 hours
From the text: as §3

## C[C@H]1O[C@@H](O[C@H]2[C@@H](O)C[C@H](O[C@H]3[C@@H](O)C[C@H](O[C@H]4CC[C@@]5(C)[C@H](CC[C@@H]6[C@@H]5C[C@@H](O)[C@]5(C)[C@@H](C7=CC(=O)OC7)CC[C@]65O)C4)O[C@@H]3C)O[C@@H]2C)C[C@H](O)[C@@H]1O [digoxin]
[1]
  fibronectin staining intensity per cell (Cellomics arrayscan): the levels of fibronectin are reduced
[2]
  reversal of activated fibroblast phenotype (fibronectin, TAZ, smooth muscle actin): revert fibroblasts to the quiescent state
[3]
  TGF-β-induced fibronectin expression (western blot): prevents TGF-β-induced fibronectin expression in a dose dependent manner
[4]
  TGF-β induced contraction of fibroblasts: inhibits TGF-β induced contraction of fibroblasts
[5]; 5 ng/ml TGF-β
  TGF-β-induced expression of FN1, COL1A1, FAP, TNC mRNA: prevented TGF-β-induced expression of FN1, COL1A1, FAP, and TNC mRNA
[5]
  α-SMA mRNA expression: reduced
[6]
  EGR-1 dependent promoter (luciferase) activity: lowers the activation of promoter dependent on EGR-1
[7]
  TGF-β-induced SMAD promoter (luciferase) activity: prevents the TGF-β induction of the SMAD signaling pathway
[8]
  TGF-β-induced fibronectin expression (western blot): prevents TGF-β-induced fibronectin expression in a dose dependent manner
[9]
  TGF-β-induced fibronectin expression (western blot): prevents TGF-β-induced fibronectin expression in a dose dependent manner

Reference: patent US11096952B2, “Chemicals and methods to prevent and treat TGF-beta mediated activation of fibroblasts to reduce and treat cancer and fibrosis” (Board of Supervisors of Louisiana State University and …, priority 2016, dated 2021)
